# From patent publication US20160009693A1, “HERBICIDAL COMPOUNDS” (SYNGENTA LIMITED, priority 2013, published 2016)
# Test system: Alopecurus myosuroides (ALOMY)
# Assay: Herbicidal glasshouse test, pre-emergence, ALOMY
# Type: in vivo
# Conditions: applied at 1000 g/h, evaluated after 13 days
row,Compound,"PRE Application ALOMY, percentage damage (five point scale)"
1,Cn1nnnc1NC(=O)c1nn(C)c(=O)n(Cc2ccc(Cl)c(Cl)c2)c1=O [Compound 1.068],3 (3=40-59%)
2,Cn1nnnc1NC(=O)c1nn(C)c(=O)n(Cc2ccc(F)cc2Cl)c1=O [Compound 1.069],5 (5=80-100%)
3,COc1cc(Cn2c(=O)c(C(=O)Nc3nnnn3C)nn(C)c2=O)cc(Cl)n1 [Compound 1.070],5 (5=80-100%)
4,Cn1nnnc1NC(=O)c1nn(C)c(=O)n(Cc2ccc([N+](=O)[O-])cc2)c1=O [Compound 1.071],5 (5=80-100%)
5,Cn1nnnc1NC(=O)c1nn(C)c(=O)n(Cc2c(Cl)cccc2Cl)c1=O [Compound 1.072],5 (5=80-100%)

# Test system: Setaria faberi (SETFA)
# Assay: Herbicidal glasshouse test, pre-emergence, SETFA
# Type: in vivo
# Conditions: applied at 1000 g/h, evaluated after 13 days
row,Compound,"PRE Application SETFA, percentage damage (five point scale)"
1,Cn1nnnc1NC(=O)c1nn(C)c(=O)n(Cc2ccc(Cl)c(Cl)c2)c1=O [Compound 1.068],1 (1=0-19%)
2,Cn1nnnc1NC(=O)c1nn(C)c(=O)n(Cc2ccc(F)cc2Cl)c1=O [Compound 1.069],2 (2=20-39%)
3,COc1cc(Cn2c(=O)c(C(=O)Nc3nnnn3C)nn(C)c2=O)cc(Cl)n1 [Compound 1.070],1 (1=0-19%)
4,Cn1nnnc1NC(=O)c1nn(C)c(=O)n(Cc2ccc([N+](=O)[O-])cc2)c1=O [Compound 1.071],2 (2=20-39%)
5,Cn1nnnc1NC(=O)c1nn(C)c(=O)n(Cc2c(Cl)cccc2Cl)c1=O [Compound 1.072],2 (2=20-39%)

# Test system: Echinochloa crus-galli (ECHCG)
# Assay: Herbicidal glasshouse test, pre-emergence, ECHCG
# Type: in vivo
# Conditions: applied at 1000 g/h, evaluated after 13 days
# How it was run: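 Echinochloa crus-galli seeds were sown in standard soil in pots and grown for one day in a glasshouse at 24/16° C. day/night, 14 hours light and 65% humidity. Pre-emergence spraying used an aqueous solution of the active ingredient in acetone/water (50:50) with 0.5% Tween 20. Damage was scored after 13 days on a five point scale.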
row,Compound,"PRE Application ECHCG, percentage damage (five point scale)"
1,Cn1nnnc1NC(=O)c1nn(C)c(=O)n(Cc2ccc(Cl)c(Cl)c2)c1=O [Compound 1.068],2 (2=20-39%)
2,Cn1nnnc1NC(=O)c1nn(C)c(=O)n(Cc2ccc(F)cc2Cl)c1=O [Compound 1.069],5 (5=80-100%)
3,COc1cc(Cn2c(=O)c(C(=O)Nc3nnnn3C)nn(C)c2=O)cc(Cl)n1 [Compound 1.070],5 (5=80-100%)
4,Cn1nnnc1NC(=O)c1nn(C)c(=O)n(Cc2ccc([N+](=O)[O-])cc2)c1=O [Compound 1.071],5 (5=80-100%)
5,Cn1nnnc1NC(=O)c1nn(C)c(=O)n(Cc2c(Cl)cccc2Cl)c1=O [Compound 1.072],5 (5=80-100%)

# Test system: Solanum nigrum (SOLNI)
# Assay: Herbicidal glasshouse test, pre-emergence, SOLNI
# Type: in vivo
# Conditions: applied at 1000 g/h, evaluated after 13 days
# How it was run: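 Seeds of Solanum nigrum were sown in pots of standard soil and kept one day in a glasshouse at 24/16° C. day/night, 14 hours light and 65% humidity. For the pre-emergence treatment they were then sprayed with an aqueous solution of the active ingredient formulated in acetone/water (50:50) containing 0.5% Tween 20. Plant damage was rated after 13 days.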
row,Compound,"PRE Application SOLNI, percentage damage (five point scale)"
1,Cn1nnnc1NC(=O)c1nn(C)c(=O)n(Cc2ccc(Cl)c(Cl)c2)c1=O [Compound 1.068],5 (5=80-100%)
2,Cn1nnnc1NC(=O)c1nn(C)c(=O)n(Cc2ccc(F)cc2Cl)c1=O [Compound 1.069],5 (5=80-100%)
3,COc1cc(Cn2c(=O)c(C(=O)Nc3nnnn3C)nn(C)c2=O)cc(Cl)n1 [Compound 1.070],5 (5=80-100%)
4,Cn1nnnc1NC(=O)c1nn(C)c(=O)n(Cc2ccc([N+](=O)[O-])cc2)c1=O [Compound 1.071],5 (5=80-100%)
5,Cn1nnnc1NC(=O)c1nn(C)c(=O)n(Cc2c(Cl)cccc2Cl)c1=O [Compound 1.072],5 (5=80-100%)

# Test system: Amaranthus retoflexus (AMARE)
# Assay: Herbicidal glasshouse test, pre-emergence, AMARE
# Type: in vivo
# Conditions: applied at 1000 g/h, evaluated after 13 days
# How it was run: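 Amaranthus retoflexus seeds were sown in pots of standard soil and kept one day in a glasshouse at 24/16° C. (day/night), 14 hours light and 65% humidity. They were then sprayed pre-emergence with the active ingredient in acetone/water (50:50) containing 0.5% Tween 20. Plants grew under the same conditions, watered twice daily, and percentage damage was scored after 13 days.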
row,Compound,"PRE Application AMARE, percentage damage (five point scale)"
1,Cn1nnnc1NC(=O)c1nn(C)c(=O)n(Cc2ccc(Cl)c(Cl)c2)c1=O [Compound 1.068],5 (5=80-100%)
2,Cn1nnnc1NC(=O)c1nn(C)c(=O)n(Cc2ccc(F)cc2Cl)c1=O [Compound 1.069],5 (5=80-100%)
3,COc1cc(Cn2c(=O)c(C(=O)Nc3nnnn3C)nn(C)c2=O)cc(Cl)n1 [Compound 1.070],5 (5=80-100%)
4,Cn1nnnc1NC(=O)c1nn(C)c(=O)n(Cc2ccc([N+](=O)[O-])cc2)c1=O [Compound 1.071],5 (5=80-100%)
5,Cn1nnnc1NC(=O)c1nn(C)c(=O)n(Cc2c(Cl)cccc2Cl)c1=O [Compound 1.072],5 (5=80-100%)

# Test system: Ipomoea hederacea (IPOHE)
# Assay: Herbicidal glasshouse test, pre-emergence, IPOHE
# Type: in vivo
# Conditions: applied at 1000 g/h, evaluated after 13 days
row,Compound,"PRE Application IPOHE, percentage damage (five point scale)"
1,Cn1nnnc1NC(=O)c1nn(C)c(=O)n(Cc2ccc(Cl)c(Cl)c2)c1=O [Compound 1.068],1 (1=0-19%)
2,Cn1nnnc1NC(=O)c1nn(C)c(=O)n(Cc2ccc(F)cc2Cl)c1=O [Compound 1.069],5 (5=80-100%)
3,COc1cc(Cn2c(=O)c(C(=O)Nc3nnnn3C)nn(C)c2=O)cc(Cl)n1 [Compound 1.070],5 (5=80-100%)
4,Cn1nnnc1NC(=O)c1nn(C)c(=O)n(Cc2ccc([N+](=O)[O-])cc2)c1=O [Compound 1.071],5 (5=80-100%)
5,Cn1nnnc1NC(=O)c1nn(C)c(=O)n(Cc2c(Cl)cccc2Cl)c1=O [Compound 1.072],3 (3=40-59%)

# Test system: Alopecurus myosuroides (ALOMY)
# Assay: Herbicidal glasshouse test, post-emergence, ALOMY
# Type: in vivo
# Conditions: applied at 1000 g/h, evaluated after 13 days
row,Compound,"POST Application ALOMY, percentage damage (five point scale)"
1,Cn1nnnc1NC(=O)c1nn(C)c(=O)n(Cc2ccc(Cl)c(Cl)c2)c1=O [Compound 1.068],3 (3=40-59%)
2,Cn1nnnc1NC(=O)c1nn(C)c(=O)n(Cc2ccc(F)cc2Cl)c1=O [Compound 1.069],5 (5=80-100%)
3,COc1cc(Cn2c(=O)c(C(=O)Nc3nnnn3C)nn(C)c2=O)cc(Cl)n1 [Compound 1.070],5 (5=80-100%)
4,Cn1nnnc1NC(=O)c1nn(C)c(=O)n(Cc2ccc([N+](=O)[O-])cc2)c1=O [Compound 1.071],4 (4=60-79%)
5,Cn1nnnc1NC(=O)c1nn(C)c(=O)n(Cc2c(Cl)cccc2Cl)c1=O [Compound 1.072],4 (4=60-79%)

# Test system: Setaria faberi (SETFA)
# Assay: Herbicidal glasshouse test, post-emergence, SETFA
# Type: in vivo
# Conditions: applied at 1000 g/h, evaluated after 13 days
# How it was run: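 Setaria faberi seeds were sown in standard soil in pots and grown for 8 days in a glasshouse at 24/16° C. day/night, 14 hours light and 65% humidity. The seedlings were then sprayed post-emergence with the active ingredient in acetone/water (50:50) containing 0.5% Tween 20. Afterwards they were kept under the same conditions, watered twice daily, and scored for percentage damage on a five point scale.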
row,Compound,"POST Application SETFA, percentage damage (five point scale)"
1,Cn1nnnc1NC(=O)c1nn(C)c(=O)n(Cc2ccc(Cl)c(Cl)c2)c1=O [Compound 1.068],1 (1=0-19%)
2,Cn1nnnc1NC(=O)c1nn(C)c(=O)n(Cc2ccc(F)cc2Cl)c1=O [Compound 1.069],2 (2=20-39%)
3,COc1cc(Cn2c(=O)c(C(=O)Nc3nnnn3C)nn(C)c2=O)cc(Cl)n1 [Compound 1.070],2 (2=20-39%)
4,Cn1nnnc1NC(=O)c1nn(C)c(=O)n(Cc2ccc([N+](=O)[O-])cc2)c1=O [Compound 1.071],1 (1=0-19%)
5,Cn1nnnc1NC(=O)c1nn(C)c(=O)n(Cc2c(Cl)cccc2Cl)c1=O [Compound 1.072],4 (4=60-79%)

# Test system: Echinochloa crus-galli (ECHCG)
# Assay: Herbicidal glasshouse test, post-emergence, ECHCG
# Type: in vivo
# Conditions: applied at 1000 g/h, evaluated after 13 days
# How it was run: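 Echinochloa crus-galli (ECHCG) seeds were sown in standard soil in pots and grown for 8 days in a glasshouse at 24/16° C. day/night, 14 hours light and 65% humidity. The young plants were then sprayed post-emergence with the active ingredient in acetone / water (50:50) containing 0.5% Tween 20. Damage was scored after 13 days.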
row,Compound,"POST Application ECHCG, percentage damage (five point scale)"
1,Cn1nnnc1NC(=O)c1nn(C)c(=O)n(Cc2ccc(Cl)c(Cl)c2)c1=O [Compound 1.068],4 (4=60-79%)
2,Cn1nnnc1NC(=O)c1nn(C)c(=O)n(Cc2ccc(F)cc2Cl)c1=O [Compound 1.069],5 (5=80-100%)
3,COc1cc(Cn2c(=O)c(C(=O)Nc3nnnn3C)nn(C)c2=O)cc(Cl)n1 [Compound 1.070],5 (5=80-100%)
4,Cn1nnnc1NC(=O)c1nn(C)c(=O)n(Cc2ccc([N+](=O)[O-])cc2)c1=O [Compound 1.071],4 (4=60-79%)
5,Cn1nnnc1NC(=O)c1nn(C)c(=O)n(Cc2c(Cl)cccc2Cl)c1=O [Compound 1.072],4 (4=60-79%)

# Test system: Solanum nigrum (SOLNI)
# Assay: Herbicidal glasshouse test, post-emergence, SOLNI
# Type: in vivo
# Conditions: applied at 1000 g/h, evaluated after 13 days
row,Compound,"POST Application SOLNI, percentage damage (five point scale)"
1,Cn1nnnc1NC(=O)c1nn(C)c(=O)n(Cc2ccc(Cl)c(Cl)c2)c1=O [Compound 1.068],5 (5=80-100%)
2,Cn1nnnc1NC(=O)c1nn(C)c(=O)n(Cc2ccc(F)cc2Cl)c1=O [Compound 1.069],5 (5=80-100%)
3,COc1cc(Cn2c(=O)c(C(=O)Nc3nnnn3C)nn(C)c2=O)cc(Cl)n1 [Compound 1.070],5 (5=80-100%)
4,Cn1nnnc1NC(=O)c1nn(C)c(=O)n(Cc2ccc([N+](=O)[O-])cc2)c1=O [Compound 1.071],5 (5=80-100%)
5,Cn1nnnc1NC(=O)c1nn(C)c(=O)n(Cc2c(Cl)cccc2Cl)c1=O [Compound 1.072],5 (5=80-100%)

# Test system: Amaranthus retoflexus (AMARE)
# Assay: Herbicidal glasshouse test, post-emergence, AMARE
# Type: in vivo
# Conditions: applied at 1000 g/h, evaluated after 13 days
# How it was run: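 Amaranthus retoflexus (AMARE) seeds were sown in pots of standard soil and grown in a glasshouse at 24/16° C. day/night, 14 hours light and 65% humidity for 8 days. The plants were then sprayed post-emergence with an aqueous solution of the active ingredient in acetone/water (50:50) with 0.5% Tween 20. Damage was scored after 13 days.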
row,Compound,"POST Application AMARE, percentage damage (five point scale)"
1,Cn1nnnc1NC(=O)c1nn(C)c(=O)n(Cc2ccc(Cl)c(Cl)c2)c1=O [Compound 1.068],5 (5=80-100%)
2,Cn1nnnc1NC(=O)c1nn(C)c(=O)n(Cc2ccc(F)cc2Cl)c1=O [Compound 1.069],5 (5=80-100%)
3,COc1cc(Cn2c(=O)c(C(=O)Nc3nnnn3C)nn(C)c2=O)cc(Cl)n1 [Compound 1.070],5 (5=80-100%)
4,Cn1nnnc1NC(=O)c1nn(C)c(=O)n(Cc2ccc([N+](=O)[O-])cc2)c1=O [Compound 1.071],5 (5=80-100%)
5,Cn1nnnc1NC(=O)c1nn(C)c(=O)n(Cc2c(Cl)cccc2Cl)c1=O [Compound 1.072],5 (5=80-100%)

# Test system: Ipomoea hederacea (IPOHE)
# Assay: Herbicidal glasshouse test, post-emergence, IPOHE
# Type: in vivo
# Conditions: applied at 1000 g/h, evaluated after 13 days
row,Compound,"POST Application IPOHE, percentage damage (five point scale)"
1,Cn1nnnc1NC(=O)c1nn(C)c(=O)n(Cc2ccc(Cl)c(Cl)c2)c1=O [Compound 1.068],5 (5=80-100%)
2,Cn1nnnc1NC(=O)c1nn(C)c(=O)n(Cc2ccc(F)cc2Cl)c1=O [Compound 1.069],5 (5=80-100%)
3,COc1cc(Cn2c(=O)c(C(=O)Nc3nnnn3C)nn(C)c2=O)cc(Cl)n1 [Compound 1.070],5 (5=80-100%)
4,Cn1nnnc1NC(=O)c1nn(C)c(=O)n(Cc2ccc([N+](=O)[O-])cc2)c1=O [Compound 1.071],2 (2=20-39%)
5,Cn1nnnc1NC(=O)c1nn(C)c(=O)n(Cc2c(Cl)cccc2Cl)c1=O [Compound 1.072],4 (4=60-79%)
